± gives the expanded uncertainty stated by the source.
What was measured:
[1] = 100 kPa, Liquid; for speed of sound: Frequency=3 MHz, Sing-around technique in a fixed-path interferometer; for mass density: Vibrating tube method
[2] = xn = mol fraction of the nth substance listed; conditions: 100 kPa, Liquid, x2 = 0; for speed of sound: Frequency=3 MHz, Sing-around technique in a fixed-path interferometer; for mass density: Vibrating tube method

SMILES	speed of sound ([1]; 293.15 K) [m/s]	mass density ([1]; 293.15 K) [kg/m3]	speed of sound ([1]; 298.15 K) [m/s]	mass density ([1]; 298.15 K) [kg/m3]	speed of sound ([1]; 303.15 K) [m/s]	mass density ([1]; 303.15 K) [kg/m3]	speed of sound ([1]; 308.15 K) [m/s]	mass density ([1]; 308.15 K) [kg/m3]	speed of sound ([1]; 313.15 K) [m/s]	mass density ([1]; 313.15 K) [kg/m3]	speed of sound ([2]; 293.15 K) [m/s]	mass density ([2]; 293.15 K) [kg/m3]	speed of sound ([2]; 298.15 K) [m/s]	mass density ([2]; 298.15 K) [kg/m3]	speed of sound ([2]; 303.15 K) [m/s]	mass density ([2]; 303.15 K) [kg/m3]	speed of sound ([2]; 308.15 K) [m/s]	mass density ([2]; 308.15 K) [kg/m3]	speed of sound ([2]; 313.15 K) [m/s]	mass density ([2]; 313.15 K) [kg/m3]
CCC(C)O (stereo not given) [butan-2-ol]	1230.2 ± 1.3	806.679 ± 0.16	1213.3 ± 1.3	802.563 ± 0.16	1197.2 ± 1.2	798.352 ± 0.16	1177 ± 1.2	794.058 ± 0.17	1158.9 ± 1.2	789.668 ± 0.17										
CC(C)O [propan-2-ol]	1168.5 ± 1.2	785.739 ± 0.15	1148 ± 1.2	781.588 ± 0.15	1132.2 ± 1.2	777.468 ± 0.15	1114.3 ± 1.1	773.151 ± 0.15	1096.2 ± 1.1	768.446 ± 0.15										
CCCCO [butan-1-ol]	1257.5 ± 1.2	809.807 ± 0.15	1240.6 ± 1.2	805.986 ± 0.15	1223.7 ± 1.2	802.139 ± 0.15	1207 ± 1.2	798.261 ± 0.15	1190.5 ± 1.2	794.385 ± 0.15										
CCCO [propan-1-ol] + CCCCOCC(C)O											1224.2 ± 1.3	804.144 ± 0.16	1207 ± 1.3	800.13 ± 0.16	1189.8 ± 1.2	796.08 ± 0.16	1172.8 ± 1.2	792.001 ± 0.17	1156.2 ± 1.2	787.884 ± 0.17
CCCCOCC(C)O (stereo not given) [1-butoxy-2-propanol]	1279 ± 1.3	879.031 ± 0.15	1260.9 ± 1.3	874.632 ± 0.15	1242.9 ± 1.3	870.204 ± 0.15	1224.9 ± 1.3	865.737 ± 0.15	1207 ± 1.3	861.241 ± 0.15										
CC(C)O [propan-2-ol] + CCCCOCC(C)O											1168.5 ± 1.2	785.739 ± 0.15	1148 ± 1.2	781.588 ± 0.15	1132.2 ± 1.2	777.468 ± 0.15	1114.3 ± 1.1	773.151 ± 0.15	1096.2 ± 1.1	768.446 ± 0.15
CCCCO [butan-1-ol] + CCCCOCC(C)O											1257.5 ± 1.2	809.807 ± 0.15	1240.6 ± 1.2	805.986 ± 0.15	1223.7 ± 1.2	802.139 ± 0.15	1207 ± 1.2	798.261 ± 0.15	1190.5 ± 1.2	794.385 ± 0.15
CCC(C)O (stereo not given) [butan-2-ol] + CCCCOCC(C)O											1230.2 ± 1.3	806.679 ± 0.16	1213.3 ± 1.3	802.563 ± 0.16	1197.2 ± 1.2	798.352 ± 0.16	1177 ± 1.2	794.058 ± 0.17	1158.9 ± 1.2	789.668 ± 0.17
CCCO [propan-1-ol]	1224.2 ± 1.3	804.144 ± 0.16	1207 ± 1.3	800.13 ± 0.16	1189.8 ± 1.2	796.08 ± 0.16	1172.8 ± 1.2	792.001 ± 0.17	1156.2 ± 1.2	787.884 ± 0.17										

Source: the NIST ThermoML archive (doi:10.1016/j.jct.2014.07.019)
